Measured values published in US9657073B2, “Inhibitors of Bcl-2” (Case Western Reserve University, priority 2010, dated 2017).
Where no end group is shown, it is not given here.

Legend:
[1] = molecular target: Bcl-XL (Homo sapiens, UniProt Q07817); conditions: read-out: inhibitory concentration of 50% (IC50) for displacing BH3 peptides; cited from earlier work
[2] = molecular target: T1, Bfl-1 (Homo sapiens, UniProt Q16548); conditions: read-out: inhibitory concentration of 50% (IC50) for displacing BH3 peptides; cited from earlier work
T1 sequence (Q16548 1-175): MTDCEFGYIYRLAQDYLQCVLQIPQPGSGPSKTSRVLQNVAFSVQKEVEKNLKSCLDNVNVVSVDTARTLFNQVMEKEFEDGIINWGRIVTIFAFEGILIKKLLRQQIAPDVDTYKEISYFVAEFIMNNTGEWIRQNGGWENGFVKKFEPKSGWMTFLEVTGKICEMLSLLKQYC

[3] = molecular target: T2, Bcl-B (Homo sapiens, UniProt Q9HD36); conditions: read-out: inhibitory concentration of 50% (IC50) for displacing BH3 peptides; cited from earlier work
T2 sequence (Q9HD36 1-204): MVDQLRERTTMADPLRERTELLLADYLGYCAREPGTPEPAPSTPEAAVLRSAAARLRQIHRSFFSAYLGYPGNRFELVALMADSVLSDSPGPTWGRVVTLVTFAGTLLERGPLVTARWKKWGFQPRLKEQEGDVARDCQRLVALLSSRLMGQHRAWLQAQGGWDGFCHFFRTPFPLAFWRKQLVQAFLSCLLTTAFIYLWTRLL

[4] = system: primary CLL cells; assay: Apoptosis and cell death assays (trypan blue, propidium iodide, Hoechst nuclear morphology, Annexin V); format: cell-based, human
Text: Lymphocytes were freshly separated from heparinized peripheral blood obtained from normal adult volunteers or adult patients with chronic lymphocytic leukemia (CLL) meeting standard diagnostic guidelines. […] We conformed to all guidelines and regulations in accordance with Internal Review Board protocols ICC2902/11-02-28 (Case Western Reserve University Cancer Center/University Hospitals of Cleveland Ireland Cancer Center). Cells were separated by centrifugation through Ficoll-Hypaque and suspended in RPMI medium supplemented with 10% fetal bovine serum, L-glutamine (2 mM), and nonessential amino acids (100 μM) at a density of 2 million cells/ml. Normal CD19+ B cells were pooled from healthy individuals between 26 and 32 years of age, in accordance with IRB-approval (as above). Mononuclear cells were separated by Ficoll-Hypaque centrifugation, and further isolation of B and T cells was achieved by magnetic separation using CD19 microbeads (Miltenyi Biotec, Bergisch Gladbach, Germany).
Apoptosis was quantified according to apoptotic nuclear morphology and by detection of phosphatidylserine exposure on the plasma membrane. […] Images were obtained using a chargecoupled device camera (Hamamatsu Photonics, Shizuoka, Japan) and digitally converted by Simple PCI software (Hamamatsu Photonics). Membrane translocation of phosphatidylserine was detected by Annexin V staining. Annexin V-positive cells were assessed by flow cytometry using an ARIA flow cytometer (Beckman Coulter, Pasadena, Calif., USA). All flow cytometry data were analyzed using FlowJo 8.8.4 for Macintosh (Treestar, Ashland, Oreg., USA). Dead cells were identified according to their inability to exclude trypan blue dye or propidium iodide. Trypan blue dye uptake into cells was detected by light microscopy using a 40× objective and quantified by counting up to 400 cells. Propidium iodide uptake was quantified by flow cytometry in association with the Annexin V measurement described above.

[5] = system: primary CLL cells; assay: Single cell digital imaging of intracellular Ca2+ (Fura-2); format: cell-based, human
Text: Lymphocytes were freshly separated from heparinized peripheral blood obtained from normal adult volunteers or adult patients with chronic lymphocytic leukemia (CLL) meeting standard diagnostic guidelines. Patients had either never received treatment or had received treatment over two years prior to obtaining samples. We conformed to all guidelines and regulations in accordance with Internal Review Board protocols ICC2902/11-02-28 (Case Western Reserve University Cancer Center/University Hospitals of Cleveland Ireland Cancer Center). Cells were separated by centrifugation through Ficoll-Hypaque and suspended in RPMI medium supplemented with 10% fetal bovine serum, L-glutamine (2 mM), and nonessential amino acids (100 μM) at a density of 2 million cells/ml. Normal CD19+ B cells were pooled from healthy individuals between 26 and 32 years of age, in accordance with IRB-approval (as above). Mononuclear cells were separated by Ficoll-Hypaque centrifugation, and further isolation of B and T cells was achieved by magnetic separation using CD19 microbeads (Miltenyi Biotec, Bergisch Gladbach, Germany).
(§1) Methods of Ca^2+ imaging, described in detail previously, were employed here with only minor modification. Briefly, cells adhered to poly-L-lysine-coated coverslips (35-mm coverslip dishes, MatTek Corp., Ashland, Mass.) were loaded with 1 μM Fura-2 AM for 45 min at 25° C. in extracellular buffer (ECB) (130 mM NaCl, 5 mM KCl, 1.5 mM CaCl2, 1 mM MgCl2, 25 mM Hepes, pH 7.5, 1 mg/ml BSA, and 5 mM glucose). The buffer was replaced with fresh ECB and the incubation continued for […] at 25° C. to permit de-esterification. Culture dishes were mounted on the non-heated stage of an inverted microscope (Olympus CKX41) equipped with a 20× Fluor objective. Excitation light was alternated between 340 and 380 nm by a filter wheel (Sutter Instrument Co.), with 0.8 sec and 0.2 sec exposure times respectively, and emitted light was filtered at >510 nm and collected with an intensified charge-coupled device camera (Cooke 12 bit VGA). The video signal was digitized using InCyt Im2 software (Intracellular Imaging) and subsequently processed using Microsoft Excel. To determine Rmin cells were perfused with ECB deficient in Ca^2+ and supplemented with 4 mM EGTA and 10 μM ionomycin. Rmax was obtained by perfusing cells with ECB supplemented with 4 mM CaCl2 and 10 μM ionomycin. […] In most experiments peptides were fused with the cell penetrating peptide of HIV TAT to facilitate uptake by cells. In some experiments peptides, without linkage to TAT, were delivered into cells using Chariot reagent (Active Motif) as previously described. Xestospongin C (Enzo Life Sciences International) and U73122 (Sigma), both dissolved in DMSO, were added to cells […] prior to Ca^2+ measurements.

[6] = system: Jurkat cells; assay: as above; format: cell-based, human; conditions: for effect on percentage of cells displaying peptide-induced Ca2+ oscillations: xestospongin C 10 μM, U73122 0.25 μM, peptide 10 μM, 90 min, FIG. 8A
Experimental: (§2) WEHI7.2 cells were cultured in DMEM supplemented with 10% fetal calf serum, L-glutamine (2 mM), and nonessential amino acids (100 μM). Transfections of WEHI7.2 cells with expression vectors encoding wild type Bcl-2 and Bcl-2RS/GG were described previously. Jurkat cells and RS11846 cells were cultured in RPMI medium supplemented with 10% fetal bovine serum, L-glutamine (2 mM), and nonessential amino acids (100 μM). Cells were maintained in 5% carbon dioxide at high humidity.
as §1

[7] = system: Bcl-2-positive WEHI7.2 cells; conditions: data not shown
[8] = system: Bcl-2-positive WEHI7.2 cells; assay: Single cell digital imaging of intracellular Ca2+ (Fura-2); format: cell-based, murine
Experimental: as §2
Methods of Ca^2+ imaging, described in detail previously, were employed here with only minor modification. Briefly, cells adhered to poly-L-lysine-coated coverslips (35-mm coverslip dishes, MatTek Corp., Ashland, Mass.) were loaded with 1 μM Fura-2 AM for 45 min at 25° C. in extracellular buffer (ECB) (130 mM NaCl, 5 mM KCl, 1.5 mM CaCl2, 1 mM MgCl2, 25 mM Hepes, pH 7.5, 1 mg/ml BSA, and 5 mM glucose). The buffer was replaced with fresh ECB and the incubation continued for […] at 25° C. to permit de-esterification. Culture dishes were mounted on the non-heated stage of an inverted microscope (Olympus CKX41) equipped with a 20× Fluor objective. […]

Chain of Bcl-XL (Q07817 whole entry, species assumed): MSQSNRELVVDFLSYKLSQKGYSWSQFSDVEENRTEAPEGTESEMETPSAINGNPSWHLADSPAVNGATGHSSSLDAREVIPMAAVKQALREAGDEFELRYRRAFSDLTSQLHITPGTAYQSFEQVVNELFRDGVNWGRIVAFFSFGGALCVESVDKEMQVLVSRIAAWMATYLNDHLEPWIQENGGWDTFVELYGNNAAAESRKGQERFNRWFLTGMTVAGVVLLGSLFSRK

## Cc1cc2c(C(C)C)c(O)c(O)c(C=O)c2c(O)c1-c1c(C)cc2c(C(C)C)c(O)c(O)c(C=O)c2c1O [Gossypol, 1,6,7,1′,6′,7′-Hexahydroxy-5,5′-diisopropyl-3,3′-dimethyl-[2,2′]binaphthalenyl-8,8′-dicarbaldehyde]
[1]
  IC50: ~500 nM
[2]
  IC50: ~500 nM
[3]
  IC50: ~500 nM

## CN(C)CCC(CSc1ccccc1)Nc1ccc(S(=O)(=O)NC(=O)c2ccc(N3CCN(Cc4ccccc4-c4ccc(Cl)cc4)CC3)cc2)cc1[N+](=O)[O-] (centres unmarked) [ABT-737, N-[4-[4-(4′-Chloro-biphenyl-2-ylmethyl)-piperazin-1-yl]-benzoyl)-4-(3-dimethylamino-1-phenylsulfanylmethyl-propylamino)-3-nitro-benzenesulfonamide, reference compound]
[4]; 2 μM, 24 hr, trypan blue dye uptake, FIG. 11B
  death of CLL cells: 40%
[5]; 2 μM ABT-737, FIG. 11A
  induction of Ca2+ elevation: did not induce Ca^2+ elevation

## C1CCC[C@H]2CCCN3CC[C@@H](CCCCCC[C@@H]4CCCN5CC[C@@H](CC1)O[C@@H]45)O[C@@H]23 [xestospongin C, reference compound]
[4]; CLL cells
  effect on apoptosis induction by TAT-IDPDD/AA: inhibited
[6]
  effect on percentage of cells displaying peptide-induced Ca2+ oscillations: reduced
[5]; CLL cells
  effect on Ca2+ responses to TAT-IDP and TAT-IDPDD/AA: inhibited

## COc1ccc2c(c1)CC[C@@H]1[C@@H]2CC[C@]2(C)[C@@H](NCCCCCCN3C(=O)C=CC3=O)CC[C@@H]12 [U73122]
[6]
  effect on percentage of cells displaying peptide-induced Ca2+ oscillations: reduced

## RKKRRQRRRGGNVYTEIKCNSLLPLDDIVRV [TAT-IDP]
[7]
  cell viability following treatment: not lost

## IDP: synthetic IP3R-derived peptide, 20 amino acid sequence within the Bcl-2-binding site on the IP3R (RKKRRQRRRGGNVYTEIKCNSLLPLDDIVRV; listed as Homo sapiens)
[8]; 2 μM peptide, 70 min recordings, FIG. 2
  number of Ca2+ spikes observed per cell: very infrequent
[8]; peptide introduced by Chariot peptide uptake reagent, data not shown
  induction of Ca2+ elevations: induced Ca^2+ elevations

## pepstatin A
[6]; TAT-IDP in Jurkat cells
  effect of pretreatment on amplitude of peptide-induced Ca2+ elevations: significant enhancement
  effect of pretreatment on percentage of cells displaying peptide-induced calcium elevations: slight, but not significant, increase
